What was measured:
Assay type in all cases: functional
[1] = tested on: Mus musculus; experiment: Analgesic activity in mouse assessed as pain threshold variation at 0.3 umol/kg, po after 60 mins (RVb = 0.15 +/- 0.16 %)
[2] = tested on: Mus musculus; experiment: Analgesic activity in mouse assessed as pain threshold variation at 25 umol/kg, po after 150 mins (RVb = 3.98 +/- 4.03 %)
[3] = tested on: Mus musculus; experiment: Analgesic activity in mouse assessed as pain threshold variation at 25 umol/kg, po after 180 mins (RVb = -5.10 %)
[4] = tested on: Mus musculus; experiment: Analgesic activity in mouse assessed as pain threshold variation at 30 umol/kg, po after 90 mins (RVb = 0.17 +/- 0.14 %)
[5] = tested on: Mus musculus; experiment: Analgesic activity in mouse assessed as pain threshold variation at 25 umol/kg, po after 120 mins (RVb = 0.69 +/- 1.98 %)
[6] = tested on: Mus musculus; experiment: Analgesic activity in mouse assessed as pain threshold variation at 0.3 umol/kg, po after 180 mins (RVb = 0.15 +/- 0.12 %)
[7] = tested on: Mus musculus; experiment: Analgesic activity in mouse assessed as pain threshold variation at 0.3 umol/kg, po after 150 mins (RVb = 0.16 +/- 0.13 %)
[8] = tested on: Mus musculus; experiment: Analgesic activity in mouse assessed as pain threshold variation at 0.3 umol/kg, po after 30 mins (RVb = 0.13 +/- 0.14 %)
[9] = tested on: Mus musculus; experiment: Analgesic activity in mouse assessed as pain threshold variation at 30 umol/kg, po after 60 mins (RVb = 0.15 +/- 0.16 %)
[10] = tested on: Mus musculus; experiment: Analgesic activity in mouse assessed as pain threshold variation at 25 umol/kg, po after 30 mins (RVb = -1 +/- 2.8 %)
[11] = tested on: Mus musculus; experiment: Analgesic activity in mouse assessed as pain threshold variation at 3 umol/kg, po after 120 mins (RVb = 0.18 +/- 0.15 %)
[12] = tested on: Mus musculus; experiment: Analgesic activity in mouse assessed as pain threshold variation at 3 umol/kg, po after 90 mins (RVb = 0.17 +/- 0.14 %)
[13] = tested on: Mus musculus; experiment: Analgesic activity in mouse assessed as pain threshold variation at 0.3 umol/kg, po after 90 mins (RVb = 0.17 +/- 0.14 %)
[14] = tested on: Mus musculus; experiment: Analgesic activity in mouse assessed as pain threshold variation at 30 umol/kg, po after 150 mins (RVb = 0.16 +/- 0.13 %)
[15] = tested on: Mus musculus; experiment: Analgesic activity in mouse assessed as pain threshold variation at 30 umol/kg, po after 30 mins (RVb = 0.13 +/- 0.14 %)
[16] = tested on: Mus musculus; experiment: Analgesic activity in mouse assessed as pain threshold variation at 3 umol/kg, po after 30 mins (RVb = 0.13 +/- 0.14 %)
[17] = tested on: Mus musculus; experiment: Analgesic activity in mouse assessed as pain threshold variation at 30 umol/kg, po after 180 mins (RVb = 0.15 +/- 0.12 %)
[18] = tested on: Mus musculus; experiment: Analgesic activity in mouse assessed as pain threshold variation at 25 umol/kg, po after 60 mins (RVb = -6.5 +/- 1.79 %)
[19] = tested on: Mus musculus; experiment: Analgesic activity in mouse assessed as pain threshold variation at 3 umol/kg, po after 60 mins (RVb = 0.15 +/- 0.16 %)
[20] = tested on: Mus musculus; experiment: Analgesic activity in mouse assessed as pain threshold variation at 3 umol/kg, po after 180 mins (RVb = 0.15 +/- 0.12 %)
[21] = tested on: Mus musculus; experiment: Analgesic activity in mouse assessed as pain threshold variation at 30 umol/kg, po after 120 mins (RVb = 0.18 +/- 0.15 %)
[22] = tested on: Mus musculus; experiment: Analgesic activity in mouse assessed as pain threshold variation at 0.3 umol/kg, po after 120 mins (RVb = 0.18 +/- 0.15 %)
[23] = tested on: Mus musculus; experiment: Analgesic activity in mouse assessed as pain threshold variation at 25 umol/kg, po after 90 mins (RVb = 0.2 +/- 3.75 %)
[24] = tested on: Mus musculus; experiment: Analgesic activity in mouse assessed as pain threshold variation at 3 umol/kg, po after 150 mins (RVb = 0.16 +/- 0.13 %)

SMILES | Activity [1] [%] | Activity [2] [%] | Activity [3] [%] | Activity [4] [%] | Activity [5] [%] | Activity [6] [%] | Activity [7] [%] | Activity [8] [%] | Activity [9] [%] | Activity [10] [%] | Activity [11] [%] | Activity [12] [%] | Activity [13] [%] | Activity [14] [%] | Activity [15] [%] | Activity [16] [%] | Activity [17] [%] | Activity [18] [%] | Activity [19] [%] | Activity [20] [%] | other results
C[C@H](NC(=O)CN(c1nc(Cl)nc2c1ncn2C1CCCCO1)C1CC1)C(=O)OCc1ccccc1 (some centres not stated) | 21.56 | 6.01 | 5.96 | 37.16 | 25.3 | 8.09 | 10 | 25.6 | 58.18 | 55.91 | 18.03 | 25.34 | 11.43 | 11.2 | 60.11 | 43.25 | 11 | 53 | 39.81 | 10 | Activity [21]: 30.44%; Activity [22]: 11.03%; Activity [23]: 32.06%; Activity [24]: 12%
N=C(N)NCCC[C@H](NC(=O)CN(c1nc(Cl)nc2c1ncn2C1CCCCO1)C1CC1)C(=O)OCc1ccccc1 (some centres not stated) | 25.11 | 19.6 | 7.97 | 66.71 | 38.16 | 7.56 | 10.03 | 12.15 | 57.51 | 34.27 | 29.09 | 50.14 | 32.88 | 24.69 | 39.41 | 20.55 | 14.01 | 52.35 | 41.07 | 10.34 | Activity [21]: 43.3%; Activity [22]: 12.14%; Activity [23]: 61.58%; Activity [24]: 15%
O=C(CN(c1nc(Cl)nc2c1ncn2C1CCCCO1)C1CC1)NCC(=O)OCc1ccccc1 (configuration not stated) | 16.24 | 7.26 | 0.06 | 31.04 | 17.23 | 9 | 9.45 | 18 | 45.52 | 55.72 | 14.53 | 20.25 | 11.2 | 12.33 | 60.84 | 45.27 | 10.16 | 40.44 | 29.07 | 9.2 | Activity [21]: 22.31%; Activity [22]: 10.02%; Activity [23]: 25.94%; Activity [24]: 10.04%

From ChEMBL document CHEMBL1255208, “A class of novel conjugates of substituted purine and Gly-AA-OBzl: synthesis and evaluation of orally analgesic activity” (2010)
